Where two headings read alike, the source gives them in different places. Blank lines part the entries; values can stand above or below the molecule they belong to.
Legend:
[1] = tested on: DPPs (DPP4 and DPP9); assay: Counter-screening against DPP4 and DPP9 (Ala-Pro-pNA substrate); format: biochemical, human; details: screened at 10 µM and 1 µM, reported as >1 µM if remaining activity more than 50% at 1 µM, n = 2
Protocol: (§1) Enzymes: Recombinant human FAP and PREP were expressed and purified as published. Recombinant human dipeptidyl 9 (DPP9) was purified as described by De Decker et al.. Human dipeptidyl peptidase 4 was purified from seminal plasma as published.
(§2) IC50 measurements and counter-screening: IC50-measurements of the probes for FAP and PREP were carried out as published, using, respectively, Z-Gly-Pro-AMC and Suc-Gly-Pro-AMC as the substrate. IC50 experiments were repeated in triplicate, and the results are presented as mean ± standard deviation. Methods and data fitting were performed as published earlier. Screening against DPP4 and DPP9 was performed at final probe concentrations of 10 µM and 1 µM using Ala-Pro-paranitroanilide (pNA) as the substrate at the respective final concentrations of 25 μM (DPP4) and 150 μM (DPP9) at pH 7.4 (0.05 M HEPES-NaOH buffer with 0.1% Tween-20, 0.1 mg/mL BSA, and 150 mM NaCl). Probes were pre-incubated with the respective enzyme for 15 min at 37 °C; afterwards, the substrate was added, and the velocities of pNA release were measured kinetically at 405 nm for at least 10 min at 37 °C. Measurements were executed using the Infinite 200 (Tecan Group Ltd., Mennendorf, Switzerland), and the Magellan software was used to process the data.

[2] = Stability of radiolabelled complexes in PBS, saline (NaCl) and ethanol; format: physicochemical; details: 37 °C; for intact conjugate (stability): PBS and NaCl
Protocol: (§3) Labeling was carried out with 100–150 MBq gallium-68 in 300 µL of 1 M ammonium acetate (AmAc) buffer pH 5.5 and with 30–40 MBq scandium-44 in 1 mL of 0.25 M AmAc pH 4.0, and aliquots were taken at 1, 3, 5, 10, and 15 min. For lutetium-177, activity of 30–40 MBq in 300 µL of 1 M AmAc pH 5.5 was used, and aliquots were taken at 1, 3, 5, 15, 30, and 60 min. Stability was tested in 500 µL of human serum, phosphate-buffered saline, ethanol, and saline (0.9% isotonic NaCl solution) using ~5 MBq of tracer solution with >95% radiochemical purity. […] HS (human male AB plasma, USA origin) and PBS were purchased from Sigma Aldrich, and 0.9% saline from B. Braun Melsungen AG (Melsungen, Germany).

[3] = Lipophilicity (logD) by shake-flask method; format: physicochemical; details: pH = 7.4, 1-octanol/PBS
Protocol: Lipophilicity (logD value) was determined via the “shake-flask” method. For both precursors AAZTA^5.SA.FAPi and DOTA.SA.FAPi logD (pH = 7.4), values were measured for the ^68Ga- and ^44Sc complexes.
Lipophilicity of [^68Ga]Ga-AAZTA^5.SA.FAPi, [^44Sc]Sc-AAZTA^5.SA.FAPi and [^68Ga]Ga-DOTA.SA.FAPi was determined using the “shake-flask” methodology. After reaction of the precursor with the respective radionuclide, the reaction solution was adjusted to pH 7.4 with NaOH. Aliquots of ~5 MBq for the ^68Ga complexes and of ~3 MBq for the ^44Sc-complexed were taken and adjusted to a total volume of 700 μL with PBS (n= 4). 700 μL 1-octanol was added, and the solution was shaken for 2 min (1500 rpm). Afterwards, each tube was centrifuged for 2 min. 400 μL of the octanol- and PBS phases were pipetted in new tubes, and aliquots of each phase (3 µL of the PBS phase and 6 μL of the octanol phase) were measured via radio-TLC. The PBS phases were adjusted to 700 µL, and 700 μL octanol was added to each tube. The procedure was repeated twice. LogD values were calculated as the logarithm of the octanol/PBS ratio.

[4] = Stability of radiolabelled complexes in human serum; format: in vitro ADME; details: human serum (HS), 37 °C
Protocol: as §3

[5] = target: T1, Recombinant human FAP (Homo sapiens, UniProt Q12884); assay: FAP inhibition assay (IC50, Z-Gly-Pro-AMC substrate); format: biochemical; details: for IC50: mean with standard deviation, n = 3; for Selectivitiy Index (FAP/PREP): ratio of PREP IC50 and FAP IC50
T1 construct: made in house
T1 sequence (Q12884 1-760): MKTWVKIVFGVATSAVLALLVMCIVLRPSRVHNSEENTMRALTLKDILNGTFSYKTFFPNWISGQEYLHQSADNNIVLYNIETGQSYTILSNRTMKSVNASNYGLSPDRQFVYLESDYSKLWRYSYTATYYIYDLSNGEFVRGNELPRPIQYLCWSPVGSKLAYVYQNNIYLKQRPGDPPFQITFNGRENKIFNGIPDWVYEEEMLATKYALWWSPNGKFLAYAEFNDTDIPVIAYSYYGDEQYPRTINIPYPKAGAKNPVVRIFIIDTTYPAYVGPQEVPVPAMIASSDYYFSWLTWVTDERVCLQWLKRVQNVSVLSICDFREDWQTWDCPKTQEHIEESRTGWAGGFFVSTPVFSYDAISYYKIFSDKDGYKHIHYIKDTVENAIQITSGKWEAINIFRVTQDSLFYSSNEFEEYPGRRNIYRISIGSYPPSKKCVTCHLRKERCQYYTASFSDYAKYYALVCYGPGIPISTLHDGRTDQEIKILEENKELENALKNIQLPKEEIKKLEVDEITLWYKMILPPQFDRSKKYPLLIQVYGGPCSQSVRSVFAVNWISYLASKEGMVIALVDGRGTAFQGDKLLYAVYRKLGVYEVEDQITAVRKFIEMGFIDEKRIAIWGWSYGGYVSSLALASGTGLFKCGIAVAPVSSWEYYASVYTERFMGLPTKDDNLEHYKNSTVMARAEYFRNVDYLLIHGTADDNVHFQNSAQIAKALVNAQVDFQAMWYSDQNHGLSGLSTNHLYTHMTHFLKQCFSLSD
Protocol: as §1, §2

[6] = target: T2, Recombinant human PREP (Homo sapiens, UniProt P48147); assay: PREP inhibition assay (IC50, Suc-Gly-Pro-AMC substrate); format: biochemical; details: mean with standard deviation, n = 3
T2 construct: made in house
T2 sequence (P48147 1-710): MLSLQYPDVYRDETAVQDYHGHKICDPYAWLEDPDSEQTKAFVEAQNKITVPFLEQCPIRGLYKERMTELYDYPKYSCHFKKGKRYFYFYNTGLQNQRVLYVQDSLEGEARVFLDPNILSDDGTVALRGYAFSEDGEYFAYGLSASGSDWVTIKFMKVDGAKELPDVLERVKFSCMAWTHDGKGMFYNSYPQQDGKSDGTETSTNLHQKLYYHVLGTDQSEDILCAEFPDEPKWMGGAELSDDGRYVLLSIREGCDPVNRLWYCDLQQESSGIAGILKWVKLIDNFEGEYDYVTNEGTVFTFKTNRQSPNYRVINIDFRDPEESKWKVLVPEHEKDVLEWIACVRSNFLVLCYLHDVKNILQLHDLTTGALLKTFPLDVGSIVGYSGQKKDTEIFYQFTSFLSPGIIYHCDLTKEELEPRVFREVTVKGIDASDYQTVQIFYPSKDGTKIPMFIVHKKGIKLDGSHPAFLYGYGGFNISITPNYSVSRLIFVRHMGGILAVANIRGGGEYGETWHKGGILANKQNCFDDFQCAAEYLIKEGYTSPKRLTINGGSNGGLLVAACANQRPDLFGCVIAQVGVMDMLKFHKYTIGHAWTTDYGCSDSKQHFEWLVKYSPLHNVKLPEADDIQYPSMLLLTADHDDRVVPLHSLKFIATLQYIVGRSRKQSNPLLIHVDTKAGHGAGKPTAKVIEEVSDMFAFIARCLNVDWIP
Protocol: as §1, §2

[7] = target: T2, Recombinant human PREP; details: mean with standard deviation; ref Moon et al. [24]; cited from earlier work
[8] = target: T1, Recombinant human FAP; design: method as in Moon et al. [24]; details: mean with standard deviation; ref Moon et al. [24]; cited from earlier work

SMILES: N#C[C@@H]1CC(F)(F)CN1C(=O)CNC(=O)c1ccnc2ccccc12 [UAMC1110-FAP inhibitor, reference compound]
- IC50 [1]: > 10000 nM

SMILES: N#C[C@@H]1CC(F)(F)CN1C(=O)CNC(=O)c1ccnc2ccc(OCCCCNc3c(NCCNC(=O)CN4CCN(CC(=O)[O-])CCN(CC(=O)[O-])CCN(CC(=O)[O-])CC4)c(=O)c3=O)cc12.[177Lu+3] [[^177Lu]Lu-DOTA.SA.FAPi]
- intact conjugate (stability) ([2]; 3 d): > 98%
- intact conjugate (stability) ([2]; 10 days): > 93%
- intact conjugate (stability) ([4]; 10 days): > 99%

SMILES: CN(CC(=O)O)C1(CCCCC(=O)NCCNc2c(NCCCCOc3ccc4nccc(C(=O)NCC(=O)N5CC(F)(F)C[C@H]5C#N)c4c3)c(=O)c2=O)CN(CC(=O)O)CCN(CC(=O)O)C1 [DATA^5m.SA.FAPi, reference compound]
- IC50 [7]: 1700 ± 100 nM
- Selectivitiy Index (FAP/PREP) [5]: 2113
- IC50 [8]: 0.8 ± 0.2 nM

SMILES: N#C[C@@H]1CC(F)(F)CN1C(=O)CNC(=O)c1ccnc2ccc(OCCCCNc3c(NCCNC(=O)CN4CCN(CC(=O)[O-])CCN(CC(=O)[O-])CCN(CC(=O)[O-])CC4)c(=O)c3=O)cc12.[44Sc+3] [[^44Sc]Sc-DOTA.SA.FAPi]
- intact conjugate (stability) ([2]; 8 h): > 97%
- intact conjugate (stability) ([4]; 8 h): > 97%

SMILES: N#C[C@@H]1CC(F)(F)CN1C(=O)CNC(=O)c1ccnc2ccc(OCCCCNc3c(NCCNC(=O)CN4CCN(CC(=O)[O-])CCN(CC(=O)[O-])CCN(CC(=O)[O-])CC4)c(=O)c3=O)cc12.[Lu+3] [[^natLu]Lu DOTA.SA.FAPi]
- IC50 [7]: 2500 ± 400 nM
- IC50 [1]: > 1000 nM
- Selectivitiy Index (FAP/PREP) [5]: 3125
- IC50 [8]: 0.8 ± 0.2 nM

SMILES: N#C[C@@H]1CC(F)(F)CN1C(=O)CNC(=O)c1ccnc2ccc(OCCCCNc3c(NCCNC(=O)CN4CCN(CC(=O)[O-])CCN(CC(=O)[O-])CCN(CC(=O)[O-])CC4)c(=O)c3=O)cc12.[Ga+3] [[^natGa]Ga-DOTA.SA.FAPi]
- IC50 [7]: 8700 ± 900 nM
- IC50 [1]: > 1000 nM
- Selectivitiy Index (FAP/PREP) [5]: 6214
- IC50 [8]: 1.4 ± 0.2 nM

The next lines start with results.

- intact conjugate (stability) ([2]; 1 h): > 99%
- intact conjugate (stability) ([2]; 8 h): > 99%
- LogD7.4 [3]: −2.50 ± 0.11
- intact conjugate (stability) ([4]; 1 h): > 99%
- intact conjugate (stability) ([4]; 8 h): > 97%
SMILES: N#C[C@@H]1CC(F)(F)CN1C(=O)CNC(=O)c1ccnc2ccc(OCCCCNc3c(NCCNC(=O)CCCCC4(N(CC(=O)[O-])CC(=O)[O-])CN(CC(=O)[O-])CCN(CC(=O)[O-])C4)c(=O)c3=O)cc12.[44Sc+3] [[^44Sc]Sc-AAZTA^5.SA.FAPi]

- IC50 [5]: 0.56 ± 0.02 nM
- Selectivitiy Index (FAP/PREP) [5]: 4286
- IC50 [6]: 2400 ± 400 nM
SMILES: N#C[C@@H]1CC(F)(F)CN1C(=O)CNC(=O)c1ccnc2ccc(OCCCCNc3c(NCCNC(=O)CCCCC4(N(CC(=O)O)CC(=O)O)CN(CC(=O)O)CCN(CC(=O)O)C4)c(=O)c3=O)cc12 [AAZTA^5.SA.FAPi]
- IC50 [1]: > 1000 nM

- intact complexes (stability) ([2]; ethanol (EtOH) and saline (NaCl), over 2 h): > 99.9%
- LogD7.4 [3]: −2.53 ± 0.13
- intact complexes (stability) ([4]; over 2 h): > 99.9%
SMILES: N#C[C@@H]1CC(F)(F)CN1C(=O)CNC(=O)c1ccnc2ccc(OCCCCNc3c(NCCNC(=O)CCCCC4(N(CC(=O)[O-])CC(=O)[O-])CN(CC(=O)[O-])CCN(CC(=O)[O-])C4)c(=O)c3=O)cc12.[68Ga+3] [[^68Ga]Ga-AAZTA^5.SA.FAPi]

- IC50 [5]: 0.57 ± 0.04 nM
- Selectivitiy Index (FAP/PREP) [5]: 6316
- IC50 [6]: 3600 ± 800 nM
SMILES: N#C[C@@H]1CC(F)(F)CN1C(=O)CNC(=O)c1ccnc2ccc(OCCCCNc3c(NCCNC(=O)CCCCC4(N(CC(=O)[O-])CC(=O)[O-])CN(CC(=O)[O-])CCN(CC(=O)[O-])C4)c(=O)c3=O)cc12.[Sc+3] [[^natSc]Sc-AAZTA^5.SA.FAPi]
- IC50 [1]: > 1000 nM

- IC50 [5]: 0.55 ± 0.04 nM
- Selectivitiy Index (FAP/PREP) [5]: 5818
- IC50 [6]: 3200 ± 600 nM
SMILES: N#C[C@@H]1CC(F)(F)CN1C(=O)CNC(=O)c1ccnc2ccc(OCCCCNc3c(NCCNC(=O)CCCCC4(N(CC(=O)[O-])CC(=O)[O-])CN(CC(=O)[O-])CCN(CC(=O)[O-])C4)c(=O)c3=O)cc12.[Lu+3] [[^natLu]Lu-AAZTA^5.SA.FAPi]
- IC50 [1]: > 1000 nM

- intact conjugate (stability) ([2]; 2 d): > 99%
- intact conjugate (stability) ([2]; 3 d): > 98%
- intact conjugate (stability) ([2]; 10 days): > 95%
- intact conjugate (stability) ([4]; 1 h): > 99%
- intact conjugate (stability) ([4]; 3 h): > 98%
- intact conjugate (stability) ([4]; 1 d): > 83%
- intact conjugate (stability) ([4]; 2 d): > 64%
- intact conjugate (stability) ([4]; 3 d): > 55%
SMILES: N#C[C@@H]1CC(F)(F)CN1C(=O)CNC(=O)c1ccnc2ccc(OCCCCNc3c(NCCNC(=O)CCCCC4(N(CC(=O)[O-])CC(=O)[O-])CN(CC(=O)[O-])CCN(CC(=O)[O-])C4)c(=O)c3=O)cc12.[177Lu+3] [[^177Lu]Lu-AAZTA^5.SA.FAPi]

From article PMC8226449, “In Vitro Evaluation of the Squaramide-Conjugated Fibroblast Activation Protein Inhibitor-Based Agents AAZTA^5.SA.FAPi and DOTA.SA.FAPi” (Molecules, 2021)
